Paper PMC10175095 (Therapeutic drug monitoring, 2023)

Experiments:
[1] = Long-term stability of unprocessed plasma samples at −80°C; format: in vitro ADME; settings: human plasma
[2] = Reinjection stability in final extract; format: physicochemical; settings: reinjected, 4°C, autosampler, 25.95 h
[3] = Freeze-thaw stability of unprocessed plasma samples; format: in vitro ADME; settings: human plasma, 3 freeze (-80°C)-thaw cycles
[4] = Processed sample stability in final extract; format: physicochemical; settings: 4°C, autosampler, 25.1 h
[5] = Pre-processed stability in human plasma; format: in vitro ADME; settings: 2.5 h
[6] = RT (20–25°C), yellow light, nominal 15 ng/mL
[7] = RT (20–25°C), yellow light, nominal 1500 ng/mL

Accuracy vs fresh QCs ([1]; 3 months, nominal 15 ng/mL): 94.0%
Accuracy vs. nominal concentration ([1]; 3 months, nominal 15 ng/mL): 99.8%
Mean measured concentration ([1]; 3 months, nominal 15 ng/mL): 15.0 ng/mL
Accuracy vs fresh QCs ([1]; 3 months, nominal 150 ng/mL): 92.8%
Accuracy vs. nominal concentration ([1]; 3 months, nominal 150 ng/mL): 102%
Mean measured concentration ([1]; 3 months, nominal 150 ng/mL): 153 ng/mL
Accuracy vs fresh QCs ([1]; 3 months, nominal 1500 ng/mL): 92.8%
Accuracy vs. nominal concentration ([1]; 3 months, nominal 1500 ng/mL): 96.0%
Mean measured concentration ([1]; 3 months, nominal 1500 ng/mL): 1440 ng/mL
Accuracy vs fresh QCs ([1]; 7 months, nominal 15 ng/mL): 92.1%
Accuracy vs. nominal concentration ([1]; 7 months, nominal 15 ng/mL): 101.3%
Mean measured concentration ([1]; 7 months, nominal 15 ng/mL): 15.2 ng/mL
Accuracy vs fresh QCs ([1]; 7 months, nominal 150 ng/mL): 85.7%
Accuracy vs. nominal concentration ([1]; 7 months, nominal 150 ng/mL): 109%
Mean measured concentration ([1]; 7 months, nominal 150 ng/mL): 163 ng/mL
Accuracy vs fresh QCs ([1]; 7 months, nominal 1500 ng/mL): 91.6%
Accuracy vs. nominal concentration ([1]; 7 months, nominal 1500 ng/mL): 92.2%
Mean measured concentration ([1]; 7 months, nominal 1500 ng/mL): 1383 ng/mL
Accuracy vs fresh QCs ([1]; 12 months, nominal 15 ng/mL): 96.4%
Accuracy vs. nominal concentration ([1]; 12 months, nominal 15 ng/mL): 104%
Mean measured concentration ([1]; 12 months, nominal 15 ng/mL): 15.6 ng/mL
Accuracy vs fresh QCs ([1]; 12 months, nominal 150 ng/mL): 95.3%
Accuracy vs. nominal concentration ([1]; 12 months, nominal 150 ng/mL): 105%
Mean measured concentration ([1]; 12 months, nominal 150 ng/mL): 157 ng/mL
Accuracy vs fresh QCs ([1]; 12 months, nominal 1500 ng/mL): 87.0%
Accuracy vs. nominal concentration ([1]; 12 months, nominal 1500 ng/mL): 108%
Mean measured concentration ([1]; 12 months, nominal 1500 ng/mL): 1613 ng/mL
Accuracy vs fresh QCs ([2]; nominal 15 ng/mL): 100%
Accuracy vs. nominal concentration ([2]; nominal 15 ng/mL): 112%
Mean measured concentration ([2]; nominal 15 ng/mL): 16.7 ng/mL
Accuracy vs fresh QCs ([2]; nominal 150 ng/mL): 99.0%
Accuracy vs. nominal concentration ([2]; nominal 150 ng/mL): 106%
Mean measured concentration ([2]; nominal 150 ng/mL): 160 ng/mL
Accuracy vs fresh QCs ([2]; nominal 1500 ng/mL): 100%
Mean measured concentration ([2]; nominal 1500 ng/mL): 1473 ng/mL
Accuracy vs fresh QCs ([3]; nominal 15 ng/mL): 98.1%
Accuracy vs. nominal concentration ([3]; nominal 15 ng/mL): 99.8%
Mean measured concentration ([3]; nominal 15 ng/mL): 15.0 ng/mL
Accuracy vs fresh QCs ([3]; nominal 1500 ng/mL): 98.7%
Accuracy vs. nominal concentration ([3]; nominal 1500 ng/mL): 96.9%
Mean measured concentration ([3]; nominal 1500 ng/mL): 1453 ng/mL
Accuracy vs fresh QCs ([4]; nominal 15 ng/mL): 99.0%
Accuracy vs. nominal concentration ([4]; nominal 15 ng/mL): 110%
Mean measured concentration ([4]; nominal 15 ng/mL): 16.5 ng/mL
Accuracy vs fresh QCs ([4]; nominal 1500 ng/mL): 100%
Accuracy vs. nominal concentration ([4]; nominal 1500 ng/mL): 98.7%
Mean measured concentration ([4]; nominal 1500 ng/mL): 1480 ng/mL
Accuracy vs fresh QCs ([5]; 37°C, dark, nominal 15 ng/mL): 94.8%
Accuracy vs. nominal concentration ([5]; 37°C, dark, nominal 15 ng/mL): 103%
Mean measured concentration ([5]; 37°C, dark, nominal 15 ng/mL): 15.4 ng/mL
Accuracy vs fresh QCs ([5]; 37°C, dark, nominal 1500 ng/mL): 102%
Accuracy vs. nominal concentration ([5]; 37°C, dark, nominal 1500 ng/mL): 99.3%
Mean measured concentration ([5]; 37°C, dark, nominal 1500 ng/mL): 1490 ng/mL
Accuracy vs fresh QCs [5, 6]: 95.6%
Accuracy vs. nominal concentration [5, 6]: 104%
Mean measured concentration [5, 6]: 15.5 ng/mL
Accuracy vs fresh QCs [5, 7]: 102%
Accuracy vs. nominal concentration [5, 7]: 99.6%
Mean measured concentration [5, 7]: 1493 ng/mL
Structure (SMILES): CC(=O)c1c(C)c2cnc(Nc3ccc(N4CCNCC4)cn3)nc2n(C2CCCC2)c1=O [Palbociclib, palbociclib]
